In general, inhibition in vivo refers to the drop in the measured response relative to a control, in per cent. Low values mean a weak effect, high ones a strong effect.

The test system of one experiment is Rattus norvegicus. Nature of the experiment: Inhibitory activity was measured on carrageenan-induced paw edema at a dose of 25 mg/Kg at 4 hours after intraperitoneal administration in rats. Format: functional. Particulars: ip.
In the case of `O=C(O)CCO/N=C/c1ccccc1`, 25 mg/kg produced 15% inhibition in vivo.
Same read-out and setting: in the case of `CC/C(=N\OCCC(=O)O)c1ccccc1` it was 19%; in that of `C/C(=N\OCCC(=O)O)c1ccccc1`, 23%; in that of `CC/C(=N\OCCC(=O)O)C(C)C`, 21%.
`O=C(O)Cc1ccccc1Nc1c(Cl)cccc1Cl` [DICLOFENAC] gave an inhibition in vivo at 25 mg/kg of 31%.

For another experiment, the system named is Rattus norvegicus. The experiment can be described thus: Inhibitory activity was measured on carrageenan-induced paw edema at a dose of 100 mg/Kg at 4 hours after intraperitoneal administration in rats. Format: functional. Particulars: ip.
As for `CC(C)=NOCCC(=O)O`, at 100 mg/kg the inhibition in vivo was 35%.
Turning to `CC/C(=N\OCCC(=O)O)c1ccccc1`, testing at 100 mg/kg gave an inhibition in vivo of 20%.
For `C/C(=N\OCCC(=O)O)c1ccccc1`, at 100 mg/kg the inhibition in vivo was 31%.
In turn, `CC/C(=N\OCCC(=O)O)C(C)C` came in with an inhibition in vivo at 100 mg/kg of less than 27%.

The subject of another experiment is Rattus norvegicus. Nature of the experiment: Inhibition of carrageenan-induced 4 hours after 50 mg/kg i.p. administration in rats. Format: functional. The settings on record: ip, route intraperitoneal.
`CC(C)=NOCCC(=O)O` had an inhibition in vivo at 50 mg/kg of 21%.
In the case of `O=C(O)CCO/N=C/c1ccccc1`, 50 mg/kg produced 66% inhibition in vivo.
Still for that read-out and setting: in the case of `C/C(=N\OCCC(=O)O)C1CC1` it was 16%; in that of `CC/C(=N\OCCC(=O)O)c1ccccc1`, 28%.
With `CCC(/C=N/OCCC(=O)O)CC`, at 50 mg/kg the inhibition in vivo was 0%.
Same read-out and setting: in the case of `O=C(O)CCO/N=C/C1CCCCC1` it was 0%; in that of `CCCC(CCC)=NOCCC(=O)O`, 0%; in that of `C/C(=N\OCCC(=O)O)C1CCCCC1`, 0%.
The compound `CC(C)C(=NOCCC(=O)O)C(C)C` came in with an inhibition in vivo at 50 mg/kg of 12%.
Regarding `O=C(O)CCON=C1c2ccccc2-c2ccccc21`, the inhibition in vivo at 50 mg/kg amounted to 0%.
On to `O=C(O)CCON=C(c1ccccc1)c1ccccc1`, for which the inhibition in vivo at 50 mg/kg turned out to be 11%.
`O=C(O)CCO/N=C1/CC2CCC1C2` (stereo not drawn) yielded an inhibition in vivo at 50 mg/kg of 16%.
Still for that read-out and setting: the result for `C/C(=N\OCCC(=O)O)c1ccccc1` reads 40%; that for `O=C(O)CCO/N=C/c1cccs1`, 0%; that for `O=C(O)CCO/N=C\c1ccccc1`, 0%.
The compound `O=C(O)CCON=C1C2CC3CC(C2)CC1C3` returned an inhibition in vivo at 50 mg/kg of 19%.
The same measure, in the same setting: the result for `O=C(O)CCO/N=C/c1ccco1` reads 15%.
Same read-out and setting: in the case of `CC/C(=N\OCCC(=O)O)C(C)C` it was 35%; in that of `O=C(O)Cc1ccccc1Nc1c(Cl)cccc1Cl` [DICLOFENAC], 67%.

These data come from ChEMBL document CHEMBL1124768 (1990).
